In one data set the test system is OsGH3.1. Nature of the data set: qRT-PCR in rice roots, OsGH3.1 (Example 20). It counts as in vivo, Oryza sativa. The settings on record: rice cv. Bomba root tissue; same samples as Example 19. The method, then: (§1) After quality control, qPCR was carried out.
(§2) To test whether other defense hormones might be involved, genes responsive to jasmonic acid (the biosynthesis gene OsAOS2) and auxin (the auxin conjugating enzyme OsGH3.1) were investigated. Moreover, the callose-degrading enzyme OsGNS5, downregulation of which is associated with basal defense, was also investigated. The qRT-PCR analysis was performed on the same samples used in the previous Example.

For a further data set, the system named is Pythium splendens. The data set can be described thus: Pythium splendens in green bean with PA seed coating (Example 22). In kind it is in vivo. Here is the method:
FIG. 25: (a) effect of a 500 μM piperonylic acid coating compared to a mock coating on germination in soil with or without Pythium splendens (PA: piperonylic acid coating, no Pythium; CON: mock coating, no Pythium; PA+Ps: piperonylic acid coating, Pythium splendens; CON+Ps: mock coating, Pythium splendens); N=45. (b) plant health score of emerged seedlings fourteen days after the start of the experiment. Scores: 0=seedling died after emergence; 1=seedling alive but stunted; 2=seedling healthy. (c) primary root length fourteen days after the start of the experiment, with bars indicating means and error bars standard deviation.

Another data set deals with OsGNS5. Nature of the data set: qRT-PCR in rice roots, OsGNS5 (Example 20). It counts as in vivo, Oryza sativa. The settings on record: rice cv. Bomba root tissue; same samples as Example 19. Here is the method:
as §1, §2

The subject of data set [1] is Fusarium solani (isolate Fso18). Nature of the data set: Onion seedling emergence with PA seed coating, Fusarium solani (Example 12). In kind it is in vivo. The note with it: onion seeds with 300 μM PA coating vs mock coating. Here is the method:
(§3) Seed coatings were applied by dipping seeds in a coating solution containing 20 g/I high viscosity carboxymethylcellulose (Sigma-Aldrich, Saint Louis, USA) in distilled water as well as 300 μM of the target compound. Seeds were then dried overnight at room temperature.
(§4) Onion seeds were coated with a 300 μM PA solution as outlined in the chemical treatments section. F. oxysporum (isolate Foc26), F. solani (isolate Fso18) and F. proliferatum (isolate Fpr18) were originally extracted from Vietnamese onion fields. Inoculum was obtained as described in the fungal culture section. The inoculum was diluted to a concentration of 1.0×10^7 spores per ml with sterile PBS buffer. The coated seeds were then soaked in the spore solution for one hour. To avoid excessive PA leaching from the PA coating, 100 μM of PA was added to the spore solution.
(§5) After soaking in the PA solution, seeds were left to dry for thirty minutes. Twenty seeds were then sowed per pot in potting soil; three pots were used per treatment and per fungal isolate (for a total of 60 seeds per treatment-isolate combination). The pots were covered in cling film and left on a window sill at room temperature. After eight and ten days, the number of germinated seedlings per pot was counted.
(§6) Germination experiments were analyzed by fitting a three-parameter log-logistic model as implemented in the R drc package.

For data set [2], the system named is Fusarium oxysporum (isolate Foc26). Nature of the data set: Onion seedling emergence with PA seed coating, Fusarium oxysporum (Example 12). In kind it is in vivo. The note with it: onion seeds with 300 μM PA coating vs mock coating. Here is the method: as §3, §4, §5, §6
A further data set concerns OsAOS2. The data set can be described thus: qRT-PCR in rice roots, OsAOS2 (Example 20). In kind it is in vivo, Oryza sativa. The note with it: rice cv. Bomba root tissue; same samples as Example 19. The method, then:
as §1, §2

Data set [3] has as its system Pseudomonas syringae (pv. DC3000). The data set can be described thus: Pseudomonas syringae infection experiment in tomato (Example 21). The settings on record: PA foliar spray. In kind it is in vivo. Here is the method: Tomato plants (Solanum lycopersicum cv. Moneymaker) were grown in potting soil as described in the plant materials section until the fourth leaf stage. Plants were treated with a piperonylic acid or control spray as described in the chemicals section. Twenty-four hours before inoculation, the tomato plants were placed in a sealed cloche to keep humidity at 100%.
A glycerol stock of P. syringae pv. DC3000 kept at−80° C. was spotted on petri dishes containing King's B agar amended with 75 μg/ml rifampicine (Duchefa Biochemie, Haarlem, the Netherlands). The plates were incubated in the dark at 28° C. for one week. At this time point, glass test tubes containing 5 ml of liquid King's B each (without rifampicin) were inoculated with cells from the plates and placed on an orbital shaker at 200 rpm for 24 hours at 28° C. 100 μl of this liquid inoculum was transferred to fresh glass test tubes containing 5 ml of liquid King's B each (without rifampicin), which were placed on an orbital shaker at 200 rpm for 24 hours at 28° C.
At this time point, the liquid culture was diluted with fresh King's B medium to an OD of 1.0. This medium was then centrifuged at 3000 rpm for ten minutes; the supernatant was discarded and the cells were resuspended in 10 mM MgSO4 to an OD of 0.20. To this inoculum, 0.01 v/v % Silwet 77 surfactant was added.
Whole tomato plants were inoculated by briefly dipping them in a beaker of the aforementioned inoculum. After dipping, plants were placed back in the sealed cloche for 12 hours. […]
Due to the difference in disease progression, two different scoring systems were used. In the first experiment, the number of lesions per plant was counted three days after inoculation and the percentage of leaf area covered by lesions was quantified using the ImageJ software after seven days. In the second experiment, each fully developed leaf was scored on a disease scale between 0 and 4 as follows: 0=no visible symptoms; 1=isolated lesions; 2=large lesions, covering <50% of leaf area; 3=lesions covering more than half of the leaf area; 4=leaf irreversibly shriveled or abscised. […]

For the next data set, the system named is carrot. The data set can be described thus: Phytotoxicity of foliar spray in uninfected carrot (Example 1). In kind it is in vivo, Daucus carota. The settings on record: 500 μM foliar spray, 8 plants per treatment. Here is the method: Carrot seeds, cv. Nantes 2 (Vreeken's Zaden, Dordrecht, the Netherlands) were germinated on wet paper for seven days at 21° C. After germination, seedlings were transferred to individual pots filled with potting soil and placed in a growth chamber at 21° C.
Unless otherwise mentioned, all chemicals for nematode experiments were applied as a foliar spray consisting of the target compound at a concentration of 300 μM together with 0.1% (v/v) Tween 20 surfactant (Calbiochem) in distilled water. Again unless otherwise mentioned, all treatments for the nematode experiments were carried out three times: one and eight days before pathogen inoculation and seven days after pathogen inoculation. In all cases, plants were sprayed until run-off with an atomizer.
Short-term phytotoxicity experiments (Example 1) were analyzed using non-parametric methods. For each variable, overall significance was determined using the Kruskal-Wallis test (Kruskal and Wallis, 1952), followed by a posthoc Conover-Iman test (Conover and Iman, 1981) with Hommel multiplicity correction (Hommel, 1988) if the Kruskal-Wallis test was significant. When only two groups were present, the Wilcoxon-Mann-Whitney test was used (Mann and Whitney, 1947).
To test whether C4H inhibitors induce phytotoxic effects in crops, uninfected tomato, wheat and carrot were treated with piperonylic acid (PA), 4-iodobenzoic acid (4-IBA) and piperic acid (PIA) at a concentration of 500 μM through foliar application. At harvest, leaf area (or shoot length in the case of wheat) and primary root length were recorded. The BBCH developmental stage (Lancashire et al., 1991), a measure of developmental retardation, was used to test for effects on development. Finally, the presence of visible signs of phytotoxicity such as chlorosis, discoloration or necrosis was recorded.

Take `O=C(O)c1ccc2c(c1)OCO2` [PA, Piperonylic acid]: the “Fold change vs. control, OsGH3.1 expression” value in the data set on OsGH3.1 is listed as 1.21. Also, the “emergence in soil containing P. splendens” value in the data set on Pythium splendens (500 μM PA seed coating vs mock coating) is “did not improve emergence”. Further, the “seedling health after emergence” value in the data set with Pythium splendens (500 μM PA seed coating vs mock coating, fourteen days) is reported as “significantly improved”. Moreover, the “primary root length in P. splendens-infested soil vs control-coated seeds” value with Pythium splendens (500 μM PA seed coating, fourteen days) was “longer”. Further, in the data set with OsGNS5, the “Fold change vs. control, OsGNS5 expression” value came out at 0.41. Further, the figures for the “improvement of seedling emergence” value in data set [1] and in data set [2] were “+27%” and “+42%”, respectively. In addition, the “Fold change vs. control, OsAOS2 expression” value in the data set with OsAOS2 is 0.71. Besides, the “mean percentage of leaf area covered by lesions” value in data set [3] (first experiment, after seven days) is “reduced”. Further, in data set [3] (first experiment, three days after inoculation, vs control), the “change of total number of lesions per plant” value was −25%. For the same compound, the “reduction of mean plant disease index” value in data set [3] (second experiment, scale 0 to 4) is 20%. Also, the “Leaf Area” value with carrot (mean ± standard deviation) is listed as 6.07 ± 2.12 cm^2. The BBCH stage in the data set with carrot (median ± interquartile range) worked out at 13 ± 0.

Source of the values: patent US11992011B2, “Compounds for controlling plant pathogens” (VIB VZW, priority 2017, dated 2024).
